Measurements reported in patent publication US20220259536A1, “MICROCHANNEL CELL CULTURE DEVICE AND SYSTEM” (THE CHARLES STARK DRAPER LABORATORY, INC., priority 2021, published 2022).

Tested on: Human renal proximal tubule cells
Assay: optical label-free measurement of cell oxygen consumption in multi-well microfluidic tissue culture device
Format: cell-based
Details: human renal proximal tubule cells treated with Oligomycin; static conditions after turning off pumps; FIG. 15B, varying drug concentrations
Text: An optical luminescence-based oxygen sensing system was integrated with an existing multi-well microfluidic tissue culture device, for label-free oxygen monitoring (FIG. 13). Sensor spots having a diameter of 0.75 mm were cut with a biopsy punch from a sheet of photosensitive film (PyroScience) and bonded with 184 Sylgard silicone adhesive to the center floor of each basal channel. The photosensitive sensor spot was located about 200 μm from the tissue layer on the surface of bottom channel. A FireStingO2 optical oxygen meter (PyroScience) with a 2 m fiber optic cable (external to channel) was used to monitor oxygen in each device. For oxygen measurements, the device was placed in an incubated confocal microscope (Zeiss Inc., Oberkochen, Germany) and the fiber optic was secured below the microscope stage. The stage was programmed to align the fiber optic with each sensor for oxygen monitoring in all 96 tissue modeling environments. A 2-point calibration of the FireStingO2 system was performed using devices filled with air saturated PBS and a 0% oxygen solution (30 g/L sodium sulfite in water). […] Tissue oxygen consumption was measured for the human renal proximal tubule cells by cycling the pumps carrying oxygen rich fluid on and off (FIG. 14). As shown in the graph of FIG. 14, under static conditions, cell oxygen consumption was measured immediately upon turning off fluid pumps.

CC[C@H]1/C=C/C=C/C[C@@H](C)[C@H](O)[C@@](C)(O)C(=O)[C@@H](C)[C@H](O)[C@@H](C)C(=O)[C@@H](C)[C@H](O)[C@@H](C)/C=C/C(=O)O[C@@H]2[C@H](C)[C@H](CC1)O[C@]1(CC[C@H](C)[C@H](C[C@@H](C)O)O1)[C@H]2C [Oligomycin]
cell oxygen consumption rate: significant decrease
